Legend:
Test in all cases: relative viability (nuclei count vs DMSO), 5 days (fraction); higher = more cells survive
[1] = test system: 201T
In short: (§1)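 Lung cancer cell lines, seeded in 1536-well plates, were treated the following day by pin tool with a single drug or with five library-drug doses (not always all listed) in √10 steps on top of a fixed anchor-drug dose. Cells were fixed and nuclei stained in one step after 5 days, and nuclei were counted. Relative viability is the nuclei count for treated wells divided by that for vehicle wells, reported as medians of duplicate plates.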

[2] = test system: A-427
In short: as §1

[3] = test system: ABC-1
In short: as §1

[4] = test system: BEN
In short: as §1

[5] = test system: H3255
In short: as §1

[6] = test system: HCC-15
In short: as §1

[7] = test system: LC-2-ad
In short: as §1

[8] = test system: LCLC-97TM1
In short: as §1

[9] = test system: NCI-H1650
In short: as §1

[10] = test system: NCI-H1651
In short: as §1

[11] = test system: NCI-H1792
In short: as §1

[12] = test system: NCI-H1915
In short: as §1

## COc1cc(N2CCC(C(N)=O)CC2)ccc1Nc1nc(N)c(Cl)c(Nc2ccccc2S(=O)(=O)C(C)C)n1 [HG-5-88-01] + Nc1ncn([C@H]2C[C@H](O)[C@@H](CO)O2)c(=O)n1 [Decitabine] (partner 2 µM)
[1]; first compound 0.04 µM
  relative viability: 0.856
[1]; first compound 0.1265 µM
  relative viability: 0.864
[1]; first compound 1.265 µM
  relative viability: 0.852
[1]; first compound 4 µM
  relative viability: 0.891
[2]; first compound 0.04 µM
  relative viability: 0.549
[2]; first compound 0.1265 µM
  relative viability: 0.598
[2]; first compound 0.4 µM
  relative viability: 0.603
[2]; first compound 1.265 µM
  relative viability: 0.585
[2]; first compound 4 µM
  relative viability: 0.547
[3]; first compound 0.04 µM
  relative viability: 0.998
[3]; first compound 0.1265 µM
  relative viability: 1.09
[3]; first compound 0.4 µM
  relative viability: 1.1
[3]; first compound 1.265 µM
  relative viability: 0.884
[3]; first compound 4 µM
  relative viability: 0.946
[4]; first compound 0.04 µM
  relative viability: 0.532
[4]; first compound 0.1265 µM
  relative viability: 0.738
[4]; first compound 0.4 µM
  relative viability: 0.77
[4]; first compound 1.265 µM
  relative viability: 0.725
[4]; first compound 4 µM
  relative viability: 0.545
[5]; first compound 0.04 µM
  relative viability: 0.589
[5]; first compound 0.1265 µM
  relative viability: 0.629
[5]; first compound 0.4 µM
  relative viability: 0.568
[5]; first compound 4 µM
  relative viability: 0.574
[6]; first compound 0.04 µM
  relative viability: 0.682
[6]; first compound 0.1265 µM
  relative viability: 0.709
[6]; first compound 0.4 µM
  relative viability: 0.487
[6]; first compound 1.265 µM
  relative viability: 0.572
[6]; first compound 4 µM
  relative viability: 0.477
[7]; first compound 0.04 µM
  relative viability: 0.782
[7]; first compound 0.1265 µM
  relative viability: 0.719
[7]; first compound 0.4 µM
  relative viability: 0.771
[7]; first compound 1.265 µM
  relative viability: 0.814
[7]; first compound 4 µM
  relative viability: 0.855
[8]; first compound 0.04 µM
  relative viability: 0.21
[8]; first compound 0.1265 µM
  relative viability: 0.219
[8]; first compound 0.4 µM
  relative viability: 0.209
[8]; first compound 1.265 µM
  relative viability: 0.229
[8]; first compound 4 µM
  relative viability: 0.128
[9]; first compound 0.04 µM
  relative viability: 0.378
[9]; first compound 0.1265 µM
  relative viability: 0.559
[9]; first compound 0.4 µM
  relative viability: 0.527
[9]; first compound 1.265 µM
  relative viability: 0.559
[9]; first compound 4 µM
  relative viability: 0.413
[10]; first compound 0.04 µM
  relative viability: 0.536
[10]; first compound 0.1265 µM
  relative viability: 0.635
[10]; first compound 0.4 µM
  relative viability: 0.717
[10]; first compound 1.265 µM
  relative viability: 0.581
[10]; first compound 4 µM
  relative viability: 0.714
[11]; first compound 0.04 µM
  relative viability: 0.628
[11]; first compound 0.1265 µM
  relative viability: 0.452
[11]; first compound 0.4 µM
  relative viability: 0.579
[11]; first compound 1.265 µM
  relative viability: 0.564
[11]; first compound 4 µM
  relative viability: 0.545
[12]; first compound 0.04 µM
  relative viability: 0.254
[12]; first compound 0.1265 µM
  relative viability: 0.279
[12]; first compound 0.4 µM
  relative viability: 0.275
